Measured values: patent publication US12102648B2, “Orally-bioavailable nucleoside analogs” (priority 2021, dated 2024)
Where two headings read alike, the source gives them in different places.

Experiments:
[1] = rats; cited from earlier work
[2] = cited from earlier work
Caco-2 cell monolayer = assay: in vitro; format: in vitro ADME; conditions: human, Caco-2, 90 min
How it was run: (§1)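 Caco-2 monolayers cultured 19 days on inserts (TEER >600 […]); bidirectional A-to-B and B-to-A transport at 37° C over 90 min, samples quantified by LC/MS/MS. Papp, efflux ratio and recovery calculated; ER >2 flags potential efflux substrates.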

in vitro = in vitro ADME; conditions: human
How it was run: as §1

[3] = Caco-2 monolayer, apical to basolateral, 90-minute incubation, read-out: Papp, A-B
[4] = Caco-2 monolayer, basolateral to apical, 90-minute incubation, read-out: Papp, B-A
[5] = Caco-2 monolayer, ER>2 indicates potential efflux transporter substrate, read-out: ER (efflux ratio)

Q: Which “% F (oral bioavailability)” value [1] does the source give for N#C[C@@]1(c2ccc3c(N)ncnn23)O[C@H](CO)[C@@H](O)[C@H]1O [GS-441524] here?
A: 4.8%

Q: What about the T½ in plasma ([2]; plasma, following IV administration) of the same compound?
A: about 24.5 hr

Q: What does the source list for N#C[C@@]1(c2ccc3c(NC(=O)[C@@H](N)Cc4ccc(F)cc4)ncnn23)O[C@H](CO)[C@@H](O)[C@H]1O [Compound 84, (S)-2-amino-N-(7-((2R,3R,4S,5R)-2-cyano-3,4-dihydroxy-5-(hydroxymethyl)tetrahydrofuran-2-yl)pyrrolo[2,1-f][1,2,4]triazin-4-yl)-3-(4-fluorophenyl)propenamide]?
A: Papp, A-B (Caco-2 cell monolayer): 0 ×10⁻⁶ cm/s; Papp, B-A (Caco-2 cell monolayer): 0 ×10⁻⁶ cm/s

Q: With CCC(CC)COC(=O)[C@H](C)N[P@](=O)(OC[C@H]1O[C@@](C#N)(c2ccc3c(N)ncnn23)[C@H](O)[C@@H]1O)Oc1ccccc1 [remdesivir, Remdesivir] as the compound, how does the “T1/2 (hydrolysis by esterases)” value ([2]; in vivo, iv) read?
A: about 1 hr

Q: With CCCCCCCCCCCCCCCCCCOCCOP(=O)(O)OC[C@H]1O[C@@H](n2cnc3c(NC)nc(N)nc32)[C@](C)(F)[C@@H]1O [Compound 254, ((2R,3R,4R,5R)-5-(2-amino-6-(methylamino)-9H-purin-9-yl)-4-fluoro-3-hydroxy-4-methyltetrahydrofuran-2-yl)methyl (2-(octadecyloxy)ethyl) hydrogen phosphate] as the compound, how does the Papp A→B at 90 min (in vitro; Caco-2) read?
A: 2.2 ×10⁻⁶ cm/s

Q: And the Papp B→A at 90 min (in vitro; Caco-2)?
A: 1.7 ×10⁻⁶ cm/s

Q: And the efflux ratio at 90 min (in vitro; Caco-2)?
A: 0.8

Q: For CC(=O)N[C@H](C(=O)OC[C@H]1O[C@@](C#N)(c2ccc3c(N)ncnn23)[C@H](O)[C@@H]1OC(=O)CC1CCCCC1)C(C)(C)C [Compound 413, ((2R,3S,4R,5R)-5-(4-aminopyrrolo[2,1-f][1,2,4]triazin-7-yl)-5-cyano-3-(2-cyclohexylacetoxy)-4-hydroxytetrahydrofuran-2-yl)methyl (S)-2-acetamido-3,3-dimethylbutanoate], which Papp A→B at 90 min (in vitro; Caco-2) is on record?
A: 4.3 ×10⁻⁶ cm/s

Q: What about the Papp B→A at 90 min (in vitro; Caco-2) of the same compound?
A: 13.8 ×10⁻⁶ cm/s

Q: What about the efflux ratio at 90 min (in vitro; Caco-2) of the same compound?
A: 3.2

Q: What does the source list for CC(C)(C(=O)OC[C@H]1O[C@@](C#N)(c2ccc3c(N)ncnn23)[C@H](O)[C@@H]1O)C1CCCCC1 [Compound 269, ((2R,3S,4R,5R)-5-(4-aminopyrrolo[2,1-f][1,2,4]triazin-7-yl)-5-cyano-3,4-dihydroxytetrahydrofuran-2-yl)methyl 2-cyclohexyl-2-methylpropanoate]?
A: Papp A→B at 90 min (in vitro; Caco-2): 15 ×10⁻⁶ cm/s; Papp B→A at 90 min (in vitro; Caco-2): 20 ×10⁻⁶ cm/s; efflux ratio at 90 min (in vitro; Caco-2): 1.3

Q: For CCCCCOC(=O)Nc1ncnn2c([C@]3(C#N)O[C@H](COC(=O)CC4CCCCC4)[C@@H](O)[C@H]3O)ccc12 [Compound 88, ((2R,3S,4R,5R)-5-cyano-3,4-dihydroxy-5-(4-(((pentyloxy)carbonyl)amino)pyrrolo[2,1-f][1,2,4]triazin-7-yl)tetrahydrofuran-2-yl)methyl 2-cyclohexylacetate], which Papp A→B at 90 min (in vitro; Caco-2) is on record?
A: 2.1 ×10⁻⁶ cm/s

Q: What about the Papp B→A at 90 min (in vitro; Caco-2) of the same compound?
A: 1.6 ×10⁻⁶ cm/s

Q: And the efflux ratio at 90 min (in vitro; Caco-2)?
A: 0.78

Q: Which results are given for CC(=O)Nc1ncnn2c([C@]3(C#N)O[C@H](COC(=O)CC4CCCCC4)[C@@H](OC(=O)[C@@H](N)C(C)C)[C@H]3O)ccc12 [Compound 348, (2R,3S,4R,5R)-5-(4-acetamidopyrrolo[2,1-f][1,2,4]triazin-7-yl)-5-cyano-2-((2-cyclohexylacetoxy)methyl)-4-hydroxytetrahydrofuran-3-yl L-valinate]?
A: Papp A→B at 90 min (in vitro; Caco-2): 0.43 ×10⁻⁶ cm/s; Papp B→A at 90 min (in vitro; Caco-2): 13 ×10⁻⁶ cm/s; efflux ratio at 90 min (in vitro; Caco-2): 30

Q: For CCC(=O)OC[C@H]1O[C@@H](n2cnc3c(NC)nc(N)nc32)[C@](C)(F)[C@@H]1O [Compound 180, ((2R,3R,4R,5R)-5-(2-amino-6-(methylamino)-9H-purin-9-yl)-4-fluoro-3-hydroxy-4-methyltetrahydrofuran-2-yl)methyl propionate], which Papp A→B at 90 min (in vitro; [3]) is on record?
A: 4.6 ×10⁻⁶ cm/s

Q: What about the Papp B→A at 90 min (in vitro; [4]) of the same compound?
A: 7.6 ×10⁻⁶ cm/s

Q: What about the efflux ratio at 90 min (in vitro; [5]) of the same compound?
A: 1.6

Q: For CC(C)C(=O)O[C@H]1[C@@H](O)[C@](C#N)(c2ccc3c(N)ncnn23)O[C@@H]1COC(=O)Cc1ccccc1 [Compound 46, (2R,3S,4R,5R)-5-(4-aminopyrrolo[2,1-f][1,2,4]triazin-7-yl)-5-cyano-4-hydroxy-2-((2-phenylacetoxy)methyl)tetrahydrofuran-3-yl isobutyrate], which Papp A→B at 90 min (in vitro; [3]) is on record?
A: 2.7 ×10⁻⁶ cm/s

Q: What about the Papp B→A at 90 min (in vitro; [4]) of the same compound?
A: 4.8 ×10⁻⁶ cm/s

Q: What about the efflux ratio at 90 min (in vitro; [5]) of the same compound?
A: 1.8

Q: For CC(=O)OC[C@H]1O[C@@](C#N)(c2ccc3c(N)ncnn23)[C@H](O)[C@@H]1OC(=O)Cc1ccccc1 [Compound 52, (2R,3S,4R,5R)-2-(acetoxymethyl)-5-(4-aminopyrrolo[2,1-f][1,2,4]triazin-7-yl)-5-cyano-4-hydroxytetrahydrofuran-3-yl 2-phenylacetate], which Papp A→B at 90 min (in vitro; [3]) is on record?
A: 1.4 ×10⁻⁶ cm/s

Q: And the Papp B→A at 90 min (in vitro; [4])?
A: 0.89 ×10⁻⁶ cm/s

Q: What about the efflux ratio at 90 min (in vitro; [5]) of the same compound?
A: 0.65

Q: Which Papp A→B at 90 min (in vitro; Caco-2) does the source give for COC1(CC(=O)OC[C@H]2O[C@@](C#N)(c3ccc4c(N)ncnn34)[C@H](O)[C@@H]2O)CCCCC1 [Compound 287, ((2R,3S,4R,5R)-5-(4-aminopyrrolo[2,1-f][1,2,4]triazin-7-yl)-5-cyano-3,4-dihydroxytetrahydrofuran-2-yl)methyl 2-(1-methoxycyclohexyl)acetate] here?
A: 5.2 ×10⁻⁶ cm/s

Q: What about the Papp B→A at 90 min (in vitro; Caco-2) of the same compound?
A: 13 ×10⁻⁶ cm/s

Q: And the efflux ratio at 90 min (in vitro; Caco-2)?
A: 2.4

Q: Which results are given for C[C@@H](C(=O)OC[C@H]1O[C@@](C#N)(c2ccc3c(N)ncnn23)[C@H](O)[C@@H]1O)C1CCCCC1 [Compound 275, ((2R,3S,4R,5R)-5-(4-aminopyrrolo[2,1-f][1,2,4]triazin-7-yl)-5-cyano-3,4-dihydroxytetrahydrofuran-2-yl)methyl (R)-2-cyclohexylpropanoate]?
A: Papp A→B at 90 min (in vitro; Caco-2): 11 ×10⁻⁶ cm/s; Papp B→A at 90 min (in vitro; Caco-2): 16 ×10⁻⁶ cm/s; efflux ratio at 90 min (in vitro; Caco-2): 1.6

Q: Which Papp A→B at 90 min (in vitro; [3]) does the source give for CC(=O)OCOC(=O)Nc1ncnn2c([C@]3(C#N)O[C@H](COC(=O)Cc4ccccc4)[C@@H](OC(=O)[C@@H](N)C(C)C)[C@H]3O)ccc12 [Compound 355, (2R,3S,4R,5R)-5-(4-(((acetoxymethoxy)carbonyl)amino)pyrrolo[2,1-f][1,2,4]triazin-7-yl)-5-cyano-4-hydroxy-2-((2-phenylacetoxy)methyl)tetrahydrofuran-3-yl L-valinate] here?
A: 1.5 ×10⁻⁶ cm/s

Q: What about the Papp B→A at 90 min (in vitro; [4]) of the same compound?
A: 0.49 ×10⁻⁶ cm/s

Q: And the efflux ratio at 90 min (in vitro; [5])?
A: 0.33

Q: What does the source list for CCCCCOC(=O)Nc1ncnn2c([C@]3(C#N)O[C@H](COC(=O)CC(C)C)[C@@H](O)[C@H]3O)ccc12 [Compound 93, ((2R,3S,4R,5R)-5-cyano-3,4-dihydroxy-5-(4-(((pentyloxy)carbonyl)amino)pyrrolo[2,1-f][1,2,4]triazin-7-yl)tetrahydrofuran-2-yl)methyl 3-methylbutanoate]?
A: Papp A→B at 90 min (in vitro; Caco-2): 2.8 ×10⁻⁶ cm/s; Papp B→A at 90 min (in vitro; Caco-2): 1.5 ×10⁻⁶ cm/s; efflux ratio at 90 min (in vitro; Caco-2): 0.54

Q: Which Papp A→B at 90 min (in vitro; Caco-2) does the source give for CC(C)[C@H](N)C(=O)Nc1ncnn2c([C@]3(C#N)O[C@H](COC(=O)[C@@H](N)C(C)C)[C@@H](O)[C@H]3O)ccc12 [Compound 110, ((2R,3S,4R,5R)-5-(4-((S)-2-amino-3-methylbutanamido)pyrrolo[2,1-f][1,2,4]triazin-7-yl)-5-cyano-3,4-dihydroxytetrahydrofuran-2-yl)methyl L-valinate] here?
A: 0.02 ×10⁻⁶ cm/s

Q: What about the Papp B→A at 90 min (in vitro; Caco-2) of the same compound?
A: 0.33 ×10⁻⁶ cm/s

Q: What about the efflux ratio at 90 min (in vitro; Caco-2) of the same compound?
A: 15

Q: Which Papp A→B at 90 min (in vitro; Caco-2) does the source give for CC(C)(C)C(=O)OCOC(=O)Nc1ncnn2c([C@]3(C#N)O[C@H](COC(=O)C(C)(C)C4CCCCC4)[C@@H](O)[C@H]3O)ccc12 [Compound 375, ((2R,3S,4R,5R)-5-cyano-3,4-dihydroxy-5-(4-((((pivaloyloxy)methoxy)carbonyl)amino)pyrrolo[2,1-f][1,2,4]triazin-7-yl)tetrahydrofuran-2-yl)methyl 2-cyclohexyl-2-methylpropanoate] here?
A: 0.02 ×10⁻⁶ cm/s

Q: What about the Papp B→A at 90 min (in vitro; Caco-2) of the same compound?
A: 0.02 ×10⁻⁶ cm/s

Q: And the efflux ratio at 90 min (in vitro; Caco-2)?
A: 1.1

Q: Which results are given for CC(C)[C@H](N)C(=O)O[C@H]1[C@@H](OC(=O)[C@@H](N)C(C)C)[C@](C#N)(c2ccc3c(N)ncnn23)O[C@@H]1COC(=O)Cc1ccccc1 [Compound 351, (2R,3R,4R,5R)-2-(4-aminopyrrolo[2,1-f][1,2,4]triazin-7-yl)-2-cyano-5-((2-phenylacetoxy)methyl)tetrahydrofuran-3,4-diyl (2S,2'S)-bis(2-amino-3-methylbutanoate)]?
A: Papp A→B at 90 min (in vitro; [3]): 0.17 ×10⁻⁶ cm/s; Papp B→A at 90 min (in vitro; [4]): 0.92 ×10⁻⁶ cm/s; efflux ratio at 90 min (in vitro; [5]): 5.5

Q: Which Papp A→B at 90 min (in vitro; Caco-2) does the source give for CNc1nc(N)nc2c1ncn2[C@@H]1O[C@H](COC(C)=O)[C@@H](O)[C@@]1(C)F [Compound 178, ((2R,3R,4R,5R)-5-(2-amino-6-(methylamino)-9H-purin-9-yl)-4-fluoro-3-hydroxy-4-methyltetrahydrofuran-2-yl)methyl acetate] here?
A: 6.7 ×10⁻⁶ cm/s

Q: What about the Papp B→A at 90 min (in vitro; Caco-2) of the same compound?
A: 4.4 ×10⁻⁶ cm/s

Q: And the efflux ratio at 90 min (in vitro; Caco-2)?
A: 0.7
